The source of these data is ChEMBL document CHEMBL1649287, “Postantibiotic effect of ceftaroline against gram-positive organisms” (2009).

Holding throughout (type): functional
In assay [1] the test system is Staphylococcus aureus. Kind of assay: Antimicrobial activity against methicillin-resistant, vancomycin-susceptible Staphylococcus aureus vs1 assessed as time required to induce sub-MIC effect at 0.2 times MIC after 1 hr by plate counting method. As to conditions: vs1, 1 h.
For assay [2], the system named is Enterococcus faecalis. Kind of assay: Antimicrobial activity against vancomycin-resistant Enterococcus faecalis 609 assessed as time required to induce post antibiotic sub-MIC effect at 0.2 times MIC after 1 hr by plate counting method. As to conditions: Enterococcus faecalis, 609, 1 h.
In assay [3] the test system is Staphylococcus aureus. Kind of assay: Antimicrobial activity against methicillin-resistant, vancomycin-intermediate Staphylococcus aureus 510 assessed as time required to induce sub-MIC effect at 0.3 times MIC after 1 hr by plate counting method. As to conditions: Staphylococcus aureus, 510, 1 h.
The test system of assay [4] is Enterococcus faecalis. Kind of assay: Antimicrobial activity against vancomycin-sensitive Enterococcus faecalis 10 assessed as time required to induce sub-MIC effect at 0.3 times MIC after 1 hr by plate counting method. As to conditions: Enterococcus faecalis, 10, 1 h.
Assay [5] has as its system Enterococcus faecalis. Kind of assay: Antimicrobial activity against vancomycin-sensitive Enterococcus faecalis ATCC 29212 assessed as time required to induce sub-MIC effect at 0.3 times MIC after 1 hr by plate counting method. The note with it: ATCC 29212, 1 h.
Assay [6] has as its system Staphylococcus aureus. Kind of assay: Antimicrobial activity against methicillin-resistant, vancomycin-susceptible Staphylococcus aureus vs1 assessed as time required to induce post antibiotic sub-MIC effect at 0.3 times MIC after 1 hr by plate counting method. The note with it: vs1, 1 h.
The test system of assay [7] is Enterococcus faecalis. Kind of assay: Antimicrobial activity against vancomycin-sensitive Enterococcus faecalis 20 assessed as time required to induce post antibiotic sub-MIC effect at 0.3 times MIC after 1 hr by plate counting method. The note with it: Enterococcus faecalis, 20, 1 h.
Assay [8] relates to Streptococcus pneumoniae. Kind of assay: Antimicrobial activity against Penicillin-, erythromycin-resistant Streptococcus pneumoniae 37 assessed as time required to induce post antibiotic sub-MIC effect at 0.4 times MIC after 1 hr by plate counting method. The note with it: Streptococcus pneumoniae, 37, 1 h.
The test system of assay [9] is Streptococcus pneumoniae. Kind of assay: Antimicrobial activity against Penicillin-, erythromycin-resistant Streptococcus pneumoniae 37 by microdilution method.
In assay [10] the test system is Staphylococcus aureus. Kind of assay: Antimicrobial activity against methicillin-resistant, vancomycin-susceptible Staphylococcus aureus vs1 by microdilution method.
For assay [11], the system named is Enterococcus faecalis. Kind of assay: Antimicrobial activity against vancomycin-sensitive Enterococcus faecalis ATCC 29212 by microdilution method. In general terms: In broth dilution the organism is exposed to a series of concentrations in liquid medium.
Assay [12] deals with Streptococcus pneumoniae. Kind of assay: Antimicrobial activity against Penicillin-intermediate Streptococcus pneumoniae s1234 assessed as time required to induce sub-MIC effect at 0.2 times MIC after 1 hr by plate counting method.
The subject of assay [13] is Streptococcus pneumoniae. Kind of assay: Antimicrobial activity against Penicillin-, erythromycin-resistant Streptococcus pneumoniae 37 assessed as time required to induce sub-MIC effect at 0.2 times MIC after 1 hr by plate counting method. The note with it: Streptococcus pneumoniae, 37, 1 h.

Structures are written as SMILES. In brackets after ≈: the same amount, converted by molar mass.

What is called MIC is the lowest concentration that inhibits growth of the organism. Consider `CCO/N=C(\C(=O)N[C@@H]1C(=O)N2C(C(=O)[O-])=C(Sc3nc(-c4cc[n+](C)cc4)cs3)CS[C@H]12)c1nsc(NP(=O)(O)O)n1` [CEFTAROLINE FOSAMIL], for which the time in the assay on Staphylococcus aureus [1] was found to be 0.4 h; with Enterococcus faecalis [2], 3 h; with Staphylococcus aureus [3], 0.7 h; in the assay on Staphylococcus aureus [6], 4.7 h; in the assay with Streptococcus pneumoniae [8] it was 3.7 h; in the assay with Streptococcus pneumoniae [13], 0.5 h. Moreover, the PAE in the assay with Enterococcus faecalis [4] is 1.5 h; with Enterococcus faecalis [5], 3.6 h; in the assay on Enterococcus faecalis [7], 8.6 h; in the assay with Streptococcus pneumoniae [12], 0 h. Besides, the MIC in the assay with Streptococcus pneumoniae [9] was 0.25 µg/mL (≈ 0.365 µM); against Staphylococcus aureus [10], 0.5 µg/mL (≈ 0.73 µM); in the assay on Enterococcus faecalis [11], 1 µg/mL (≈ 1.46 µM).
